Where two headings read alike, the source gives them in different places.
Experiments:
[1] = Phase 1 study in subjects with hepatic impairment: pharmacokinetics and protein binding; type: in vivo, humans; parameters: AUC(0-t): concentration or dose not given beside the values; details: for AUC0-t Geometric Mean Ratio (%) (test/reference) / AUC0-tau Geometric Mean Ratio (%) (test/reference) / Cmax Geometric Mean Ratio (%) (test/reference) / AUC(0-t) / AUC / Cmax: Day 5; for AUC(0-t) / AUC / Cmax / half-life: human, plasma
Description: Safety and Pharmacokinetics of solithromycin in Subjects with Hepatic Impairment. The safety, pharmacokinetics (PK), and protein binding of solithromycin was evaluated in subjects with mild, moderate, and severe hepatic impairment compared to healthy subjects with normal hepatic function (matched for age, weight, and gender). The evaluation was performed in a Phase 1, open-label, multiple-dose study in subjects with mild (Child-Pugh Class A), moderate (Child-Pugh Class B), and severe (Child-Pugh Class C) hepatic impairment and healthy matched control subjects with normal hepatic function. All subjects received a once-daily dose of 800 mg on Day 1 followed by 400 mg on Days 2 through 5.
PK parameters on Day 5 were compared between the hepatic impaired cohorts and the control group, and geometric mean ratios were calculated.

[2] = system: BLM-induced pulmonary fibrosis model mice; experiment: Bleomycin-induced lung injury: lung histopathology (Masson's Trichrome, Ashcroft score, HE); type: in vivo
Description: Bleomycin-Induced Lung Injury. Lung inflammation is induced in female mice by a single intratracheal administration of bleomycin. Twenty mice are divided into two groups. From Day −2 to Day 6, one group is administered vehicle and the other is administered test drug, such as solithromycin orally at a dose of 100 mg/kg. It is to be understood herein that 100 mg/kg in mice is generally considered to be equivalent to a 450-500 mg, such as 480 mg, dose in humans. Animals are sacrificed on Day 7.
Pathogen-free 7 weeks old female C57BL/6J mice are obtained from CLEA Japan (Tokyo, Japan) and allowed to acclimate at least 6 days. On day 0, twenty mice are induced to develop pulmonary fibrosis by a single intratracheal administration of bleomycin sulphate (BLM, Nippon Kayaku, Japan) in 0.9% saline in a volume of 50 μL per animal using a Microsprayer® (Penn-Century, USA). Individual body weight is measured daily during the experiment period. Survival, clinical signs and behavior of mice is monitored daily.
Solithromycin Reduces Inflammation In Mice Caused By Bleomycin-Induced Lung Injury. […]
Histopathological Analyses. […] The degree of pulmonary fibrosis was evaluated using the Ashcroft score (4) for the quantitative histological analysis.

human FXR = experiment: FXR reporter cell assays (agonist and antagonist); type: cell-based; details: reporter cells, from 30 μM, 1:3 dilutions
Description: FXR Signal Pathway. […] Solithromycin is tested in reporter cell assays expressing a hybrid FXR receptor (Indigo Biosciences, PA). Agonist and antagonist activity is measured. Solithromycin is tested starting at 30 μM and continuing with 1:3 dilutions. […] Without being bound by theory, it is believed herein that dependence upon the FXR pathway for activity in treating the diseases described herein may lead to increased triglycerides (TGs) and low density lipids (LDL) as an unwanted side effects. For example, patients with various forms of FLD may be at risk for cardiovascular disease, which may be aggravated by increased triglycerides and low density lipids.

For `CC[C@H]1OC(=O)[C@@](C)(F)C(=O)[C@H](C)[C@@H](O[C@@H]2O[C@H](C)C[C@H](N(C)C)[C@H]2O)[C@](C)(OC)C[C@@H](C)C(=O)[C@H](C)[C@H]2N(CCCCn3cc(-c4cccc(N)c4)nn3)C(=O)O[C@]12C` [solithromycin], the “AUC0-t Geometric Mean Ratio (%) (test/reference)” value ([1]; Mild versus Control) was 117.44%, the “AUC0-tau Geometric Mean Ratio (%) (test/reference)” value ([1]; Mild versus Control) was 75.30% and the “Cmax Geometric Mean Ratio (%) (test/reference)” value ([1]; Mild versus Control) was 121.08%. For the same compound, the “AUC0-t Geometric Mean Ratio (%) (test/reference)” value ([1]; Moderate versus Control) was 117.83%, the “AUC0-tau Geometric Mean Ratio (%) (test/reference)” value ([1]; Moderate versus Control) was 71.58% and the “Cmax Geometric Mean Ratio (%) (test/reference)” value ([1]; Moderate versus Control) was 105.36%. For the same compound, the “AUC0-t Geometric Mean Ratio (%) (test/reference)” value ([1]; Severe versus Control) was 109.95%, the “AUC0-tau Geometric Mean Ratio (%) (test/reference)” value ([1]; Severe versus Control) was 58.86% and the “Cmax Geometric Mean Ratio (%) (test/reference)” value ([1]; Severe versus Control) was 77.69%. The “Accumulation on Day 5” value ([1]; any of the hepatic impaired cohorts) was “No accumulation”, the AUC(0-t) ([1]; healthy control subjects, read-out: AUC0-t (Reference Group)) was 7550 ng·h/mL and the AUC ([1]; healthy control subjects, read-out: AUC0-tau (Reference Group)) was 10500 ng·h/mL. The Cmax ([1]; healthy control subjects, read-out: Cmax (Reference Group)) was 649 ng/mL, the Cmax ([1]; mild hepatic impairment, 800 mg Day 1, 400 mg Days 2-5, read-out: Cmax (Test Group)) was 786 ng/mL and the AUC(0-t) ([1]; mild hepatic impairment, read-out: AUC0-t (Test Group)) was 8870 ng·h/mL. It also gave an AUC ([1]; mild hepatic impairment, read-out: AUC0-tau (Test Group)) of 7900 ng·h/mL, an AUC(0-t) ([1]; moderate hepatic impairment, read-out: AUC0-t (Test Group)) of 8900 ng·h/mL and an AUC ([1]; moderate hepatic impairment, read-out: AUC0-tau (Test Group)) of 7510 ng·h/mL. It also gave a Cmax ([1]; moderate hepatic impairment, read-out: Cmax (Test Group)) of 684 ng/mL, an AUC(0-t) ([1]; severe hepatic impairment, read-out: AUC0-t (Test Group)) of 8310 ng·h/mL and an AUC ([1]; severe hepatic impairment, read-out: AUC0-tau (Test Group)) of 6180 ng·h/mL. For the same compound, the Cmax ([1]; severe hepatic impairment, read-out: Cmax (Test Group)) was 504 ng/mL, the half-life ([1]; control) was 534 min and the half-life ([1]; mild hepatic impairment) was 612 min. For the same compound, the half-life ([1]; moderate hepatic impairment) was 624 min, the half-life ([1]; severe hepatic impairment) was 942 min and the “Mean plasma protein binding percentage at Day 5 Cmax” value ([1]; mild or moderate hepatic impairment vs control) was “not significantly affected”. The “Mean plasma protein binding percentage at Day 5 Cmax” value ([1]; severe cohort vs control) was “slightly lower”, the “HE staining: alveolar wall thickening, diffuse alveolar destruction, inflammatory cell infiltration vs vehicle” value [2] was “no obvious differences” and the Ashcroft score ([2]; vehicle 1.6±0.2) was 1.4±0.5. The Agonist activity (human FXR; hybrid FXR receptor) was “not show agonistic activity”, the Antagonist activity (human FXR; hybrid FXR receptor) was “nor significant antagonistic activity” and the “Cytotoxicity in the antagonist assays” value (human FXR) was “does not show evidence of cytotoxicity”.

Source: patent US20170165286A1, “COMPOSITIONS AND METHODS FOR TREATING DIABETES AND LIVER DISEASES” (Cempra Pharmaceuticals, Inc., priority 2014, published 2017)
